# Data from paper PMC11954736 (BioImpacts : BI, 2024).
# Legend:
# [1] = tested on: Aβ-induced memory impairment in Wistar rats; assay: Morris water maze; format: in vivo; conditions: Aβ induced AD rats, oral, 21 days; 3rd and fourth training days
# NF-κB = assay: Western blot of NF-κB in rat hippocampal tissue; format: in vivo, Wistar rats; conditions: Aβ induced AD rats, oral, 21 days
# TNFα = assay: Western blot of TNFα in rat hippocampal tissue; format: in vivo, Wistar rats; conditions: Aβ induced AD rats, oral, 21 days
# B16 = assay: Cell viability assay; format: cell-based, murine; conditions: MTT, 48 h exposure; LD50: concentration that causes 50% of cell viability
# PC12 cells = assay: Cell viability assay; format: cell-based, rat; conditions: MTT, 48 h exposure, studied concentrations
# MCF7 = assay: Cell viability assay; format: cell-based, human; conditions: MTT, 48 h exposure; LD50: concentration that causes 50% of cell viability
Structure (SMILES),"Escape latency time, MWM [1]",NF-κB level in hippocamp tissue (western blot) (NF-κB),TNFα level in hippocamp tissue (western blot) (TNFα),B16 (LD50 µM) (B16) [µM],PC12 (LD50 µM) (PC12 cells),PC12 (LD50 µM) (PC12 cells; listed as galantamine),MCF7 (LD50 µM) (MCF7) [µM]
COc1cc2c(cc1OC)C(=O)C(CC1CCN(Cc3ccccc3)CC1)C2 (stereo not shown) [Donepezil],significantly decreased,Downregulation,Downregulation,–,–,–,–
COc1ccc2c3c1O[C@H]1C[C@@H](O)C=C[C@@]31CCN(C)C2 [Galantamine],–,–,–,34.09,No growth inhibition*,no significant effect,31.19
